Columns and labels:
Cricetinae gen. sp. [1] = test: Inhibition of lipid synthesis in hamster flank gland after administration of 0.1 mg.; assay type: functional
Cricetinae gen. sp. [2] = test: Inhibition of increase in flank organ weight after administration of 0.5 mg.; assay type: functional, Cricetulus griseus
Cricetinae gen. sp. [3] = test: The compound was tested for the seminal vesicle weight after -5 mg sc administration for 14 days.; assay type: functional, Cricetulus griseus
Cricetinae gen. sp. [4] = test: The compound was tested for the seminal vesicle weight after -0.75 ug topical application for 14 days.; assay type: functional, Cricetulus griseus
Cricetinae gen. sp. [5] = test: Inhibition of increase in flank organ weight after administration of 1.0 mg.; assay type: functional, Cricetulus griseus
Cricetinae gen. sp. [6] = test: The compound was tested for the treated flank organ weight after -0.375 ug topical application for 14 days.; assay type: functional, Cricetulus griseus
Cricetinae gen. sp. [7] = test: The compound was tested for the treated flank organ weight after -1 mg sc administration for 14 days.; assay type: functional, Cricetulus griseus
Cricetinae gen. sp. [8] = test: The compound was tested for the treated flank organ weight after -0.75 ug topical application for 14 days.; assay type: functional, Cricetulus griseus
Cricetinae gen. sp. [9] = test: The compound was tested for the seminal vesicle weight after -1 mg sc administration for 14 days.; assay type: functional, Cricetulus griseus
Cricetinae gen. sp. [10] = test: The compound was tested for the seminal vesicle weight after -0.375 ug topical application for 14 days.; assay type: functional, Cricetulus griseus
Cricetinae gen. sp. [11] = test: The compound was tested for the treated flank organ weight after -5 mg sc administration for 14 days; assay type: functional, Cricetulus griseus

C[C@]12C=CC(=O)C=C1CCC1C2C(=O)C[C@@]2(C)C1CC[C@]2(Cl)[S+]([O-])CCc1ccccc1 (stereo partly specified)
Inhibition (Cricetinae gen. sp. [1]): 0% | Inhibition (Cricetinae gen. sp. [2]): 16%

C[C@]12C=CC(=O)C=C1CCC1C2C(=O)C[C@@]2(C)C1CC[C@H]2Sc1ccccc1 (stereo partly specified)
Inhibition (Cricetinae gen. sp. [1]): <25%

Cc1ccccc1C[S+]([O-])[C@@]1(Cl)CCC2C3CCC4=CC(=O)C=C[C@]4(C)C3C(=O)C[C@@]21C (stereo partly specified)
Inhibition (Cricetinae gen. sp. [1]): 31%

C[C@]12C=CC(=O)C=C1CCC1C2C(=O)C[C@@]2(C)C1CC[C@]2(Cl)S(=O)(=O)Cc1ccccc1 (stereo partly specified)
Inhibition (Cricetinae gen. sp. [1]): <31%

C[C@]12C=CC(=O)C=C1CCC1C2CC[C@@]2(C)C1CC[C@H]2SCc1ccccc1 (stereo partly specified)
Inhibition (Cricetinae gen. sp. [1]): 0%

[O-][S+](CCl)Cc1ccccc1 (stereo unspecified)
Inhibition (Cricetinae gen. sp. [1]): 14%

C[C@]12C=CC(=O)C=C1CCC1C2C(=O)C[C@@]2(C)C1CC[C@]2(Cl)[S+]([O-])Cc1ccccc1 (stereo partly specified)
Organ weight (Cricetinae gen. sp. [3]): 128 mg | Inhibition (Cricetinae gen. sp. [1]): <70% | Organ weight (Cricetinae gen. sp. [4]): 358 mg | Inhibition (Cricetinae gen. sp. [5]): 53% | Organ weight (Cricetinae gen. sp. [6]): <29.5 mg | Inhibition (Cricetinae gen. sp. [2]): 43% | Organ weight (Cricetinae gen. sp. [7]): <21.5 mg | Organ weight (Cricetinae gen. sp. [8]): <23.7 mg | Organ weight (Cricetinae gen. sp. [9]): 138 mg | Organ weight (Cricetinae gen. sp. [10]): 351 mg | Organ weight (Cricetinae gen. sp. [11]): <19.5 mg

C[C@]12C=CC(=O)C=C1CCC1C2C(=O)C[C@@]2(C)C1CC[C@H]2[S+]([O-])C(Cl)c1ccccc1 (stereo partly specified)
Inhibition (Cricetinae gen. sp. [1]): 0%

[O-][S+](Cc1ccccc1)[C@@H](Cl)c1ccccc1 (stereo partly specified)
Inhibition (Cricetinae gen. sp. [1]): 14%

C[C@]12C=CC(=O)C=C1CCC1C2[C@@H](O)C[C@@]2(C)C1CC[C@H]2SCc1ccccc1 (stereo partly specified)
Inhibition (Cricetinae gen. sp. [1]): 0%

C[C@]12C=CC(=O)C=C1CCC1C2C(=O)C[C@@]2(C)C1CC[C@H]2[S+]([O-])Cc1ccccc1 (stereo partly specified)
Inhibition (Cricetinae gen. sp. [1]): 28%

C[C@]12C=CC(=O)C=C1CCC1C2C(=O)C[C@@]2(C)C1CC[C@H]2SCc1ccccc1 (stereo partly specified)
Inhibition (Cricetinae gen. sp. [1]): <29%

C[C@]12C=CC(=O)C=C1CCC1C2C(=O)C[C@@]2(C)C1CC[C@]2(Cl)[S+]([O-])c1ccccc1 (stereo partly specified)
Inhibition (Cricetinae gen. sp. [1]): 20%

CCCCC[S+]([O-])[C@@]1(Cl)CCC2C3CCC4=CC(=O)C=C[C@]4(C)C3C(=O)C[C@@]21C (stereo partly specified)
Inhibition (Cricetinae gen. sp. [1]): <29%

C[C@]1(O)CC[C@H]2[C@@H]3CCC4=CC(=O)CC[C@@H]4[C@H]3CC[C@@]21C [NORMETHANDRONE]
Organ weight (Cricetinae gen. sp. [3]): <94 mg | Organ weight (Cricetinae gen. sp. [4]): <283 mg | Organ weight (Cricetinae gen. sp. [6]): <15.6 mg | Organ weight (Cricetinae gen. sp. [7]): <22.5 mg | Organ weight (Cricetinae gen. sp. [8]): <13.7 mg | Organ weight (Cricetinae gen. sp. [9]): 121 mg | Organ weight (Cricetinae gen. sp. [10]): 316 mg | Organ weight (Cricetinae gen. sp. [11]): <22.1 mg

C[C@]12C=CC(=O)C=C1CCC1C2[C@@H](O)C[C@@]2(C)C1CC[C@]2(Cl)[S+]([O-])Cc1ccccc1 (stereo partly specified)
Inhibition (Cricetinae gen. sp. [1]): <20%

C[C@]12C=CC(=O)C=C1CCC1C2CC[C@@]2(C)C1CC[C@]2(Cl)[S+]([O-])Cc1ccccc1 (stereo partly specified)
Inhibition (Cricetinae gen. sp. [1]): <40%

C[C@]12C=CC(=O)C=C1CCC1C2C(=O)C[C@@]2(C)C1CC[C@]2(Cl)[S+]([O-])Cc1ccc(Cl)cc1Cl (stereo partly specified)
Inhibition (Cricetinae gen. sp. [1]): 20%
